According to PubChem BioAssay (NCI):
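Tested at 5 concentrations; 48 h exposure; 96-well plates; endpoints linearly interpolated, else capped at highest concentration. Here, GI50 denotes the concentration required for 50% inhibition of growth. TGI: total growth inhibition.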

What was measured:
Test in all cases: NCI tumour cell line growth inhibition, 48 h
HCT-116 colon = system: HCT-116 colon
NCI/ADR-RES ovarian = system: NCI/ADR-RES ovarian
UACC-62 melanoma = system: UACC-62 melanoma
LOX IMVI melanoma = system: LOX IMVI melanoma
EKVX NSCLC = system: EKVX NSCLC
NCI-H23 lung = system: NCI-H23 lung
SR leukemia = system: SR leukemia
MDA-MB-435 = system: MDA-MB-435
HL-60(TB) leukemia = system: HL-60(TB) leukemia
DU-145 prostate = system: DU-145 prostate

| SMILES | TGI (HCT-116 colon) | TGI (NCI/ADR-RES ovarian) | TGI (UACC-62 melanoma) | TGI (LOX IMVI melanoma) | TGI (EKVX NSCLC) | TGI (NCI-H23 lung) | TGI (SR leukemia) | TGI (MDA-MB-435) | TGI (HL-60(TB) leukemia) | TGI (DU-145 prostate) | GI50 (HCT-116 colon) | GI50 (NCI/ADR-RES ovarian) | GI50 (UACC-62 melanoma) | GI50 (LOX IMVI melanoma) | GI50 (EKVX NSCLC) | GI50 (NCI-H23 lung) | GI50 (SR leukemia) | GI50 (MDA-MB-435) | GI50 (HL-60(TB) leukemia) | GI50 (DU-145 prostate) |
| --- | --- | --- | --- | --- | --- | --- | --- | --- | --- | --- | --- | --- | --- | --- | --- | --- | --- | --- | --- | --- |
| CCCCc1ccc(Nc2nc3c(ncn3COCCO)c(=O)[nH]2)cc1 | > 100 µM | > 100 µM | > 100 µM | > 100 µM | > 100 µM | > 100 µM | > 100 µM | > 100 µM | > 100 µM | > 100 µM | – | – | – | – | – | – | – | – | – | – |
| CCOc1cc(-c2nc3ccccn3c2/N=C/c2cc(Br)ccc2O)ccc1O | > 100 µM | 93 µM | 57 µM | > 100 µM | 76.6 µM | > 100 µM | > 100 µM | > 100 µM | > 100 µM | 70.3 µM | – | – | – | – | – | – | – | – | – | – |
| CCOC(=O)/C(C#N)=N\Nc1ccc(-n2c(C)nc3ccccc3c2=O)cc1 | > 100 µM | 86.8 µM | > 100 µM | > 100 µM | > 100 µM | > 100 µM | > 100 µM | > 100 µM | > 100 µM | > 100 µM | – | – | – | – | – | – | – | – | – | – |
| Cc1cn([C@@H]2C[C@H]2CO)c(=O)[nH]c1=O | > 100 µM | > 100 µM | > 100 µM | > 100 µM | > 100 µM | > 100 µM | > 100 µM | > 100 µM | > 100 µM | > 100 µM | – | – | – | – | – | – | – | – | – | – |
| N#Cc1cc2c(cc1Cl)Sc1nccn1S2(=O)=O | 4.03 µM | 3.9 µM | 7.32 µM | 3.19 µM | 35.9 µM | 3.35 µM | 3.54 µM | 17.5 µM | 16.6 µM | 6.18 µM | – | – | – | – | – | – | – | – | – | – |
| Cn1c2ccccc2n2c(=O)c3cc([N+](=O)[O-])ccc3c(C#N)c12 | > 100 µM | > 100 µM | > 100 µM | > 100 µM | > 100 µM | > 100 µM | > 100 µM | > 100 µM | > 100 µM | > 100 µM | – | – | – | – | – | – | – | – | – | – |
| CC1(CNCc2ccccc2)CC(CCc2ccccc2)N(C(=O)c2ccc([N+](=O)[O-])cc2)C1Cc1ccc(O)cc1 (stereo not given) | 23.1 µM | 36 µM | 28.9 µM | 26.2 µM | 31 µM | 23.5 µM | > 100 µM | 28.2 µM | 54.4 µM | 28.5 µM | – | – | – | – | – | – | – | – | – | – |
| COc1cc(CN2CCCCC2)cc2cc(C(=O)O)c(=O)oc12 | > 100 µM | > 100 µM | > 100 µM | > 100 µM | > 100 µM | > 100 µM | > 100 µM | > 100 µM | > 100 µM | > 100 µM | – | – | – | – | – | – | – | – | – | – |
| COc1cc(/C=C\C(=O)O)ccc1OCc1ccccc1 | > 100 µM | > 100 µM | > 100 µM | > 100 µM | > 100 µM | > 100 µM | > 100 µM | > 100 µM | > 100 µM | > 100 µM | – | – | – | – | – | – | – | – | – | – |
| COc1ccc2cc(NC(=O)N/N=C\c3ccc(Cl)cc3)ccc2c1 | > 100 µM | > 100 µM | > 100 µM | > 100 µM | > 100 µM | > 100 µM | > 100 µM | > 100 µM | > 100 µM | > 100 µM | – | – | – | – | – | – | – | – | – | – |
| Brc1cc2nn(-c3ccccc3)nc2c2nonc12 | > 100 µM | > 100 µM | > 100 µM | > 100 µM | > 100 µM | > 100 µM | > 100 µM | > 100 µM | > 100 µM | > 100 µM | – | – | – | – | – | – | – | – | – | – |
| Cc1c2ncccc2cc2oc3ccccc3c(=O)c12 | > 100 µM | > 100 µM | > 100 µM | > 100 µM | > 100 µM | > 100 µM | > 100 µM | > 100 µM | > 100 µM | > 100 µM | – | – | – | – | – | – | – | – | – | – |
| CC1(C)C=C(S(=O)(=O)c2ccccc2)Oc2ccccc2O1 | > 100 µM | > 100 µM | > 100 µM | 57.6 µM | 73.4 µM | > 100 µM | > 100 µM | 48 µM | 46.2 µM | > 100 µM | – | – | – | – | – | – | – | – | – | – |
| NC(N)=NS(=O)(=O)c1ccc(NC(=O)c2ccc3nc4ccccc4c(Nc4ccc(S(=O)(=O)N=C(N)N)cc4)c3c2)cc1 | > 100 µM | > 100 µM | > 100 µM | > 100 µM | > 100 µM | > 100 µM | > 100 µM | > 100 µM | > 100 µM | > 100 µM | – | – | – | – | – | – | – | – | – | – |
| Cn1c([O-])nc(-n2cc[n+](C)c2)cc1=O | > 100 µM | > 100 µM | > 100 µM | > 100 µM | > 100 µM | > 100 µM | > 100 µM | > 100 µM | > 100 µM | > 100 µM | – | – | – | – | – | – | – | – | – | – |
| Brc1ccc2c(-c3csc(-c4c[nH]c5ccc(Br)cc45)n3)c[nH]c2c1 | 13.9 µM | 21.2 µM | 9.2 µM | 4.16 µM | 7.15 µM | 14.2 µM | > 100 µM | 17.7 µM | 19.7 µM | 15.5 µM | – | – | – | – | – | – | – | – | – | – |
| O=c1c2ccccc2nc(Nc2cccc(Cl)c2)n1/N=C/C=C/c1ccccc1 | > 100 µM | > 100 µM | > 100 µM | > 100 µM | > 100 µM | > 100 µM | > 100 µM | > 100 µM | > 100 µM | > 100 µM | – | – | – | – | – | – | – | – | – | – |
| N#Cc1c(-c2ccc(F)cc2)nc(N/N=C/c2c[nH]c3ccccc23)nc1N1CCOCC1 | 17.9 µM | > 100 µM | 27.4 µM | 11.2 µM | 86.9 µM | 92.7 µM | 24 µM | 74.9 µM | 7.57 µM | > 100 µM | 2170 nM | 13.2 µM | 11.4 µM | 3.33 µM | 5.44 µM | 21.2 µM | 215 nM | 9.26 µM | 563 nM | 2900 nM |
| CCOC(=O)C(CC#Cc1ccc(C#CCC(NC(C)=O)C(=O)OCC)cc1)NC(C)=O (stereo not given) | > 100 µM | > 100 µM | > 100 µM | > 100 µM | > 100 µM | > 100 µM | > 100 µM | > 100 µM | > 100 µM | > 100 µM | – | – | – | – | – | – | – | – | – | – |
| CC(C)(C)c1cc(/C=C(\C#N)C(=O)NCCO)cc(C(C)(C)C)c1O | 32.7 µM | 75.3 µM | 27.5 µM | 53.9 µM | 70.4 µM | 89.7 µM | 49.4 µM | 45 µM | 36.9 µM | > 100 µM | – | – | – | – | – | – | – | – | – | – |
| FC(F)(F)c1ccc2nc3n(c2c1)C(c1c(Cl)cccc1Cl)SC3 (stereo not given) | 22.4 µM | 25.7 µM | 28.6 µM | > 100 µM | 28.6 µM | 37 µM | 21.4 µM | 30.5 µM | 33.2 µM | 32.3 µM | – | – | – | – | – | – | – | – | – | – |
| Cc1nn(-c2cc(Cl)ccc2[N+](=O)[O-])c(C)c1Cl | > 100 µM | > 100 µM | > 100 µM | > 100 µM | > 100 µM | > 100 µM | > 100 µM | > 100 µM | > 100 µM | > 100 µM | – | – | – | – | – | – | – | – | – | – |
| COc1cc(I)c2c3c1OC1C34CCN(C)C(C2)C4=CC(I)C1(OC)OC (stereo not given) | 60.6 µM | 68 µM | 42 µM | 42.3 µM | > 100 µM | 54.7 µM | 40.9 µM | 33.8 µM | 47.3 µM | 47.5 µM | – | – | – | – | – | – | – | – | – | – |
| CCOC(=O)C(NC(=O)CC(C)C)(N1CCN(c2cc3c(cc2F)c(=O)c(C(=O)O)cn3C2CC2)CC1)C(F)(F)F (stereo not given) | 56.2 µM | 52.2 µM | 30.2 µM | 35.5 µM | 92.8 µM | 33.5 µM | 45.8 µM | 56.5 µM | 26 µM | > 100 µM | – | – | – | – | – | – | – | – | – | – |
| CCC(C)C(=O)OC1CC2(C)C(c3ccoc3)OC(=O)CC23OC2(C)OC34C(OC(=O)C(C)C)C3(O)C(OC(=O)C5(C)OC5C)C5(C)CC3(O)C(C)(C5CC(=O)OC)C14O2 (stereo not given) | > 100 µM | > 100 µM | > 100 µM | > 100 µM | > 100 µM | > 100 µM | 95 µM | > 100 µM | 38.9 µM | > 100 µM | – | – | – | – | – | – | – | – | – | – |
| Nc1ccc(S(=O)(=O)Nc2nc3ccccc3nc2N2CCCCC2)cc1 | > 100 µM | > 100 µM | > 100 µM | > 100 µM | > 100 µM | > 100 µM | > 100 µM | > 100 µM | > 100 µM | > 100 µM | – | – | – | – | – | – | – | – | – | – |
| O=C1CSC(c2cccs2)N1c1nc2cc3sc(N4C(=O)CSC4c4cccs4)nc3cc2s1 (stereo not given) | > 50 µM | > 50 µM | > 50 µM | > 50 µM | > 50 µM | > 50 µM | > 50 µM | > 50 µM | > 50 µM | > 50 µM | – | – | – | – | – | – | – | – | – | – |
| O=c1oc2cc(O)ccc2c(O)c1C(c1ccc(C(c2c(O)c3ccc(O)cc3oc2=O)c2c(O)c3ccc(O)cc3oc2=O)cc1)c1c(O)c2ccc(O)cc2oc1=O | > 100 µM | > 100 µM | > 100 µM | > 100 µM | > 100 µM | > 100 µM | > 100 µM | > 100 µM | > 100 µM | > 100 µM | – | – | – | – | – | – | – | – | – | – |
| Brc1cccc(N=NN2CCCC2)c1 | > 100 µM | > 100 µM | > 100 µM | > 100 µM | > 100 µM | > 100 µM | > 100 µM | > 100 µM | > 100 µM | > 100 µM | – | – | – | – | – | – | – | – | – | – |
| C=C1C(=O)O[C@@]23C1CC[C@@H](C)C2CC[C@@]1(C)OC31 (stereo not given in full) | 21.3 µM | 48.4 µM | 27.1 µM | 26.6 µM | 30.5 µM | 20.6 µM | 33.2 µM | 23 µM | 10.6 µM | 35.5 µM | – | – | – | – | – | – | – | – | – | – |
